Experimental data: US10214492B2, “Heterocyclic inhibitors of MCT4” (Vettore, LLC, priority 2016, dated 2019)

What was measured:
MCT4 = MCT4 (Homo sapiens (Human), UniProt O15427); assay: Assay 3: MCT4-mediated lactate transport in MDA-MB-231 breast cancer cells; format: cell-based; conditions: MDA-MB-231 cells; lactate transport
Summary of the method: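 Read-out is BCECF fluorescence tracking the intracellular pH shift from MCT4-mediated lactate/H+ co-transport. Before measurement, MDA-MB-231 cells take up BCECF-AM for 5 min at 37° C, then are washed into Tyrode's Solution, pH 7.4.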

MCT1 = MCT1 (Homo sapiens (Human), UniProt P53985); assay: Assay 4: MCT1-mediated lactate transport in BT20 breast cancer cells; format: cell-based; conditions: Table 27
Sequence of MCT1 (P53985 whole entry): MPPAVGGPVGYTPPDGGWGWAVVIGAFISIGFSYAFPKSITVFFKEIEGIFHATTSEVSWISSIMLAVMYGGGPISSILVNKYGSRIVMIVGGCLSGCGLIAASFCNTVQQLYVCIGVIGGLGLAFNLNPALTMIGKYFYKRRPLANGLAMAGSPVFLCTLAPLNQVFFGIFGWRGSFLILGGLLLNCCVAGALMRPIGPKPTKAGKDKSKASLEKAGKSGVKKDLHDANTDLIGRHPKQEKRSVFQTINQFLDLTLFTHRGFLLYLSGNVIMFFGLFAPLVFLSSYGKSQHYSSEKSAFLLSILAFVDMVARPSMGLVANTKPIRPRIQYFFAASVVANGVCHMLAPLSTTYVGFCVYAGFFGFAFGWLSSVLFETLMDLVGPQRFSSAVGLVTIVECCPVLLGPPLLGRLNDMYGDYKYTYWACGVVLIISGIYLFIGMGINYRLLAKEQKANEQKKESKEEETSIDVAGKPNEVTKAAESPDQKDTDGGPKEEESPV
Sequence of MCT1 (P35613 140-385 partner): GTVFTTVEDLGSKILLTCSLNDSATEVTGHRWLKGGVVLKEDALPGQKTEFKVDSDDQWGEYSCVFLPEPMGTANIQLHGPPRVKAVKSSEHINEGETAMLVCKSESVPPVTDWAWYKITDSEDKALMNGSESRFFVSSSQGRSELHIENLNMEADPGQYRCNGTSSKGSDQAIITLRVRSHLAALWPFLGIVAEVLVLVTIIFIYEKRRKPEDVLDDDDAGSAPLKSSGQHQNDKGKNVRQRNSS
Summary of the method: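 Transport started with 10 mM L-lactate on BCECF-loaded BT20 cells in Tyrode's Solution, pH 7.4. Dye loading: BCECF-AM ester (30 mM DMSO stock), 5 min at 37° C, then one wash.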

[1] = Metabolic stability in human liver microsomes (in vitro t1/2); format: in vitro ADME; conditions: for half-life at 2 µM: human liver microsomes 0.5 mg/mL, 2 μM compound, read-out: Human microsome t1/2, min; for Human microsome % 60 min: human liver microsomes
Summary of the method: (§1)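 Test compound (2 μM final) was added to NADPH-supplemented microsomes at 0.5 mg/mL protein and sampled over 60 min (0–60 min time points). In vitro t1/2 was calculated as −0.693/k, with k the slope of ln percent parent remaining, measured by LC-MS/MS, against time.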

[2] = Metabolic stability in rat liver microsomes (in vitro t1/2); format: in vitro ADME; conditions: for half-life at 2 µM: read-out: Rat microsome t1/2, min; for Rat microsome % 60 min: rat liver microsomes
Method: The following are assays that may be used to evaluate the metabolic stability of compounds of Formula (I) in human, rat, or mouse microsomes. The assays follow a common procedure recited below. 1. […] Two separated experiments were performed as follows. a) With NADPH: 10 μL of 20 mg/mL liver microsomes and 40 μL of 10 mM NADPH were added to the incubations. […] The final concentration of microsomes was 0.5 mg/mL. 3. The reaction was started with the addition of 4 μL of 200 μM control compound or test compound solutions. Verapamil was used as positive control in this study. The final concentration of test compound or control compound was 2 μM. 4. Aliquots of 50 μL were taken from the reaction solution at 0, 15, 30, 45 and 60 min. […] Samples were centrifuged at 3,220 g for 40 minutes. A 90 μL aliquot of the supernatant was mixed with 90 μL of ultra-pure H2O and then used for LC-MS/MS analysis. 5. Data analysis. All calculations were carried out using Microsoft Excel. Peak areas were determined from extracted ion chromatograms. The slope value, k, was determined by linear regression of the natural logarithm of the remaining percentage of the parent drug vs. incubation time curve. The in vitro half-life (in vitro t1/2) was determined from the slope value: in vitro t1/2=−(0.693)/k.

[3] = Metabolic stability in mouse liver microsomes (in vitro t1/2); format: in vitro ADME; conditions: for Mouse microsome t1/2, min / half-life at 2 µM: mouse liver microsomes 0.5 mg/mL, 2 μM compound; for Mouse microsome % 60 min: mouse liver microsomes; for half-life at 2 µM: read-out: Mouse microsome t1/2, min
Summary of the method: as §1

[4] = Pharmacokinetic assay in rat (IV 3 mg/kg, PO 10 mg/kg); format: in vivo; conditions: Male Sprague-Dawley rat; for Rat F: oral bioavailability; for Rat F / half-life: PO 10 mg/kg; for half-life / Vd: plasma; for half-life: read-out: Rat t1/2 (converted); for Vd: volume of distribution, read-out: Rat Vss
Excerpt: (§2) The following are assays that may be used to evaluate the pharmacokinetic properties of Formula (I) in mouse or rat. The assays follow a common procedure recited below.
(§3) 1. […] For PO (oral gavage), DMSO/PEG400 (10:90). Formulations freshly prepared on the day of dosing or prior to dosing. Storage at room temperature.
(§4) 2. Test Species: For Mouse: Male CD1 strain, approximately 6-8 weeks in age, approximately 20-30 g. For Rat: Male Sprague-Dawley strain, approximately 6-8 weeks in age, approximately 200-300 g.
(§5) 3. Dose Level: For IV, 3 mg/kg. For PO, 10 mg/kg.
(§6) 4. Number of animals: 3 per assay.
(§7) 5. PK time points: For IV (plasma): 5 min, 15 min, 1, 2, 4, 6, 8, 24 h post dose. For PO (plasma): 15 min, 30 min, 1, 2, 4, 6, 8, 24 h post dose.
(§8) 6. Blood Sample Collection and Processing. Blood was collected (˜0.2 mL per time point) from jugular vein. Blood of each sample was transferred into plastic micro centrifuge tubes containing anticoagulant of EDTA-K2. Blood samples were centrifuged at 2,000 g for 5 minutes at 4° C. to obtain plasma.
(§9) 7. Samples Analysis: Plasma samples were analyzed using LC/MS/MS method, and pharmacokinetic parameters (half-life: t1/2; oral bioavailability: F; volume of distribution: Vss).

[5] = Adjuvant-induced arthritis model in rat: Difference of Weight Bearing test (DWB); format: in vivo; conditions: SD rat, CFA-induced arthritis; PO 3 days post CFA; compared to Dexamethasone
[6] = Adjuvant-induced arthritis model in rat: Mechanical Allodynia test (MA, Von Frey); format: in vivo; conditions: SD rat, CFA-induced arthritis; PO 3 days post CFA; compared to Dexamethasone
[7] = Pharmacokinetic assay in mouse (IV 3 mg/kg, PO 10 mg/kg); format: in vivo; conditions: Male CD1 mouse; for Mouse F: oral bioavailability; for Mouse F / half-life: PO 10 mg/kg; for half-life / Vd: plasma; for half-life: read-out: Mouse t1/2 (converted); for Vd: volume of distribution, read-out: Mouse Vss
Excerpt: as §2, §3, §4, §5, §6, §7, §8, §9

[8] = rat liver microsomes 0.5 mg/mL, 2 μM compound

Sequence of MCT4 (O15427 whole entry, looked up): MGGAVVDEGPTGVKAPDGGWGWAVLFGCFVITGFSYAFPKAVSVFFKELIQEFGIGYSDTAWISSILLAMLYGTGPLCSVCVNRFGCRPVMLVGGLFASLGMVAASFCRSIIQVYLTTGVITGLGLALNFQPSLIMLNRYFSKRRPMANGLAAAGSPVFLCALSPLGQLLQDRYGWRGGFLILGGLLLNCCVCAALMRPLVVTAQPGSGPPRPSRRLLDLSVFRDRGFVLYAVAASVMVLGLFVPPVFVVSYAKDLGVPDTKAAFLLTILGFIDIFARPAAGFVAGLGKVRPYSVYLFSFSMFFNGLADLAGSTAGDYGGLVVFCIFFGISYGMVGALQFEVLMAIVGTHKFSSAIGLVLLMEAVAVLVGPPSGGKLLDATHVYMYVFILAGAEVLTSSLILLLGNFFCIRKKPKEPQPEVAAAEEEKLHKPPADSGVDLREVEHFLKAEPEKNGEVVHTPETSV
Sequence of MCT4 (P35613 whole entry partner, looked up): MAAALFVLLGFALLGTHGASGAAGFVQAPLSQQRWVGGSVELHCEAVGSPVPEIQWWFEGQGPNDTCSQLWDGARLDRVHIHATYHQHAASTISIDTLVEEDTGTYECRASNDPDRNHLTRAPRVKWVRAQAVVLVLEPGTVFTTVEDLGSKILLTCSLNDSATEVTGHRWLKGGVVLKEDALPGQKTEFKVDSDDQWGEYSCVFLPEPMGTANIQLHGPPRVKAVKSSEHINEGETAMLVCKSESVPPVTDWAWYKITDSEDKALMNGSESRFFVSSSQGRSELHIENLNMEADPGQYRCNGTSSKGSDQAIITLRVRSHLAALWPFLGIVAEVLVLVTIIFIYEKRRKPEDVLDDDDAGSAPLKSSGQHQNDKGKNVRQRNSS

Structure (SMILES): Cc1ccccc1-n1nc(COC(C)(C)C(=O)O)cc1-c1cccc(OC2CCC2)c1 [Example 161, 2-([5-(3-Cyclobutoxyphenyl)-1-(2-methyl-phenyl)-1H-pyrazol-3-yl]methoxy)-2-methylpropanoic acid]
- IC50 (MCT4): 3.3 nM
- IC50 (MCT1): 22000 nM
- half-life at 2 µM [1]: 3.23 h
- Human microsome % 60 min [1]: 82%
- half-life at 2 µM [2, 8]: 4.32 h
- Rat microsome % 60 min [2]: 80%
- Mouse microsome t1/2, min [3]: ∞
- Mouse microsome % 60 min [3]: 99%
- Rat F [4]: 61%
- half-life [4]: 5.7 h
- Vd [4]: 0.32 L/kg
- Difference in Weight Bearing, Minimal Efficacious Dose [5]: ≤10 mg/kg
- Mechanical Allodynia (Von Frey), Minimal Efficacious Dose [6]: ≤10 mg/kg

Structure (SMILES): CC(C)(OCc1cc(-c2cccc(OC3CCC3)c2)n(-c2ccccc2Cl)n1)C(=O)O [Example 175, 2-([1-(2-Chlorophenyl)-5-(3-cyclobutoxy-phenyl)-1H-pyrazol-3-yl]methoxy)-2-methylpropanoic acid]
- half-life at 2 µM [1]: 3.53 h
- Human microsome % 60 min [1]: 83%
- half-life at 2 µM [2, 8]: 5.25 h
- Rat microsome % 60 min [2]: 87%
- half-life at 2 µM [3]: 11.8 h
- Mouse microsome % 60 min [3]: 94%
- Rat F [4]: 48%
- half-life [4]: 4.2 h
- Vd [4]: 0.4 L/kg
- Difference in Weight Bearing, Minimal Efficacious Dose [5]: >10 mg/kg
- Mechanical Allodynia (Von Frey), Minimal Efficacious Dose [6]: >10 mg/kg

Structure (SMILES): COc1cc(OC)cc(-c2cc(COC(C)(C)C(=O)O)nn2-c2ccccc2Cl)c1 [Example 179, 2-([1-(2-Chlorophenyl)-5-(3,5-dimethoxy-phenyl)-1H-pyrazol-3-yl]methoxy)-2-methylpropanoic acid]
- IC50 (MCT4): 13 nM
- IC50 (MCT1): > 100000 nM
- half-life at 2 µM [1]: 10.7 h
- Human microsome % 60 min [1]: 93%
- half-life at 2 µM [2, 8]: 5.3 h
- Rat microsome % 60 min [2]: 85%
- Mouse microsome t1/2, min [3]: ∞
- Mouse microsome % 60 min [3]: 98%
- Rat F [4]: 76%
- half-life [4]: 2.2 h
- Vd [4]: 0.3 L/kg
- Difference in Weight Bearing, Minimal Efficacious Dose [5]: ≤10 mg/kg
- Mechanical Allodynia (Von Frey), Minimal Efficacious Dose [6]: <10 mg/kg

Structure (SMILES): CCOc1cc(OCC)cc(-c2cc(COC(C)(C)C(=O)O)nn2-c2ccccc2Cl)c1 [Example 180, 2-([1-(2-Chlorophenyl)-5-(3,5-diethoxy-phenyl)-1H-pyrazol-3-yl]methoxy)-2-methylpropanoic acid]
- IC50 (MCT4): 2.9 nM
- IC50 (MCT1): 28000 nM
- half-life at 2 µM [1]: 4.6 h
- Human microsome % 60 min [1]: 88%
- half-life at 2 µM [2, 8]: 38.2 h
- Rat microsome % 60 min [2]: 98%
- Mouse microsome t1/2, min [3]: ∞
- Mouse microsome % 60 min [3]: 103%
- Rat F [4]: 49%
- half-life [4]: 4.4 h
- Vd [4]: 0.39 L/kg
- Difference in Weight Bearing, Minimal Efficacious Dose [5]: >10 mg/kg
- Mechanical Allodynia (Von Frey), Minimal Efficacious Dose [6]: >10 mg/kg

Structure (SMILES): Cn1ncc2cccc(-n3nc(COC(C)(C)C(=O)O)cc3-c3cccc(OC4CC4)c3)c21 [Example 191, 2-([5-(3-Cyclopropoxyphenyl)-1-(1-methyl-1H-indazol-7-yl)-1H-pyrazol-3-yl]-methoxy)-2-methylpropanoic acid]
- IC50 (MCT4): 17 nM
- IC50 (MCT1): 16000 nM
- half-life at 2 µM [1]: 23.4 h
- Human microsome % 60 min [1]: 98%
- half-life at 2 µM [2, 8]: 9.27 h
- Rat microsome % 60 min [2]: 94%
- half-life at 2 µM [3]: 16.8 h
- Mouse microsome % 60 min [3]: 97%
- Rat F [4]: 97%
- half-life [4]: 6.3 h
- Vd [4]: 1 L/kg
- Difference in Weight Bearing, Minimal Efficacious Dose [5]: >10 mg/kg
- Mechanical Allodynia (Von Frey), Minimal Efficacious Dose [6]: >10 mg/kg

Structure (SMILES): COc1cc(OC)cc(-c2cc(COC(C)(C)C(=O)O)nn2Cc2ccccc2Cl)c1 [Example 224, 2-([1-[(2-Chlorophenyl)methyl]-5-(3,5-di-methoxyphenyl)-1H-pyrazol-3-yl]methoxy)-2-methylpropanoic acid]
- IC50 (MCT4): 4.1 nM
- IC50 (MCT1): 30000 nM
- half-life at 2 µM [1]: 12.3 h
- Human microsome % 60 min [1]: 91%
- half-life at 2 µM [2, 8]: 2.2 h
- Rat microsome % 60 min [2]: 73%
- half-life at 2 µM [3]: 13.8 h
- Mouse microsome % 60 min [3]: 98%
- Rat F [4]: 53%
- half-life [4]: 2.6 h
- Vd [4]: 1.3 L/kg
- Difference in Weight Bearing, Minimal Efficacious Dose [5]: ≤10 mg/kg
- Mechanical Allodynia (Von Frey), Minimal Efficacious Dose [6]: ≤10 mg/kg

Structure (SMILES): CCn1ncc2ccc(-c3cc(COC(C)(C)C(=O)O)nn3-c3ccccc3N3CCC3)cc21 [Example 228, 2-([1-(2-(Azetidin-1-yl)phenyl]-5-(1-ethyl-1H-indazol-6-yl)-1H-pyrazol-3-yl]-methoxy)-2-methylpropanoic acid]
- IC50 (MCT4): 5.9 nM
- IC50 (MCT1): 31000 nM
- half-life at 2 µM [1]: 2.17 h
- Human microsome % 60 min [1]: 71%
- half-life at 2 µM [2, 8]: 6.58 h
- Rat microsome % 60 min [2]: 91%
- half-life at 2 µM [3]: 12.8 h
- Mouse microsome % 60 min [3]: 96%
- Mouse F [7]: 100%
- half-life [7]: 4.4 h
- Vd [7]: 2 L/kg
- Rat F [4]: 94%
- half-life [4]: 3.1 h
- Vd [4]: 1.3 L/kg

Structure (SMILES): CCn1ncc2ccc(-c3cc(CO[C@@](C)(CC)C(=O)O)nn3Cc3ccccc3Cl)cc21 [Example 257, (S)-2-((1-(2-chlorobenzyl)-5-(1-ethyl-1H-indazol-6-yl)-1H-pyrazol-3-yl)methoxy)-2-methylbutanoic acid]
- IC50 (MCT4): 0.35 nM
- IC50 (MCT1): 19000 nM
- half-life at 2 µM [1]: 21.6 h
- Human microsome % 60 min [1]: 96%
- Rat microsome t1/2, min [2, 8]: ∞
- Rat microsome % 60 min [2]: 103%
- Mouse microsome t1/2, min [3]: ∞
- Mouse microsome % 60 min [3]: 102%
- Mouse F [7]: 76%
- half-life [7]: 3.6 h
- Vd [7]: 2.8 L/kg
- Rat F [4]: 76%
- half-life [4]: 2.7 h
- Vd [4]: 1.6 L/kg

Structure (SMILES): CC(C)(OCc1cc(-c2cccc(OC3CCC3)c2)n(-c2ccccc2N2CCC2)n1)C(=O)O [Example 260, 2-([1-[2-(Azetidin-1-yl)phenyl]-5-(3-cyclobutoxyphenyl)-1H-pyrazol-3-yl]methoxy)-2-methylpropanoic acid]
- IC50 (MCT4): 0.83 nM
- IC50 (MCT1): 26000 nM
- Mouse F [7]: 86%
- half-life [7]: 5.2 h
- Vd [7]: 0.22 L/kg
- Rat F [4]: 85%
- half-life [4]: 3.7 h
- Vd [4]: 0.2 L/kg
- Difference in Weight Bearing, Minimal Efficacious Dose [5]: 1 mg/kg
- Mechanical Allodynia (Von Frey), Minimal Efficacious Dose [6]: 1 mg/kg

Structure (SMILES): CCOc1ccccc1Cn1nc(CO[C@](C)(CC)C(=O)O)cc1-c1cc(OC)cc(OC)c1 [Example 264, (2R)-2-([5-(3,5-Dimethoxyphenyl)-1-[(2-ethoxyphenyl)methyl]-1H-pyrazol-3-yl]methoxy)-2-methylbutanoic acid]
- IC50 (MCT4): 0.35 nM
- IC50 (MCT1): 10000 nM
- Mouse F [7]: 94%
- half-life [7]: 2.7 h
- Vd [7]: 1.1 L/kg
- Rat F [4]: 100%
- half-life [4]: 4.6 h
- Vd [4]: 2.5 L/kg
- Difference in Weight Bearing, Minimal Efficacious Dose [5]: 1 mg/kg
- Mechanical Allodynia (Von Frey), Minimal Efficacious Dose [6]: 1 mg/kg
